Measurements as given in patent US9579314B2 (priority 2015, dated 2017).

Legend:
Human M3 receptor = Human M3 receptor (Homo sapiens, UniProt P20309); details: read-out: M3 binding affinity
Human β2 adrenoceptor = Human β2 adrenoceptor (Homo sapiens, UniProt P07550); details: read-out: B2 binding affinity
Human β2 adrenoceptor, sequence (P07550 whole entry): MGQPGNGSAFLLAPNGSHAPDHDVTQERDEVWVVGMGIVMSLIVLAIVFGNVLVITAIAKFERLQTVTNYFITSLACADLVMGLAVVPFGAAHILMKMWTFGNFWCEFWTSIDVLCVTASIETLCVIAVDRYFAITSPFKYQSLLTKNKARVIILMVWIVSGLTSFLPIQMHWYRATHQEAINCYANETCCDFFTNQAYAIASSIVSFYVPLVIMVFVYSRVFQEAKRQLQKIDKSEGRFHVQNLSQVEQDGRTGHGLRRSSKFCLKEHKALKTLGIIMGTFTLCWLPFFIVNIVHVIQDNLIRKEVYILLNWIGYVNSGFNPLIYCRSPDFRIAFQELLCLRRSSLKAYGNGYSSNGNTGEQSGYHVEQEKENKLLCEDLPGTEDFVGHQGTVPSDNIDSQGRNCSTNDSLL

Human M3 receptor, sequence (P20309 whole entry): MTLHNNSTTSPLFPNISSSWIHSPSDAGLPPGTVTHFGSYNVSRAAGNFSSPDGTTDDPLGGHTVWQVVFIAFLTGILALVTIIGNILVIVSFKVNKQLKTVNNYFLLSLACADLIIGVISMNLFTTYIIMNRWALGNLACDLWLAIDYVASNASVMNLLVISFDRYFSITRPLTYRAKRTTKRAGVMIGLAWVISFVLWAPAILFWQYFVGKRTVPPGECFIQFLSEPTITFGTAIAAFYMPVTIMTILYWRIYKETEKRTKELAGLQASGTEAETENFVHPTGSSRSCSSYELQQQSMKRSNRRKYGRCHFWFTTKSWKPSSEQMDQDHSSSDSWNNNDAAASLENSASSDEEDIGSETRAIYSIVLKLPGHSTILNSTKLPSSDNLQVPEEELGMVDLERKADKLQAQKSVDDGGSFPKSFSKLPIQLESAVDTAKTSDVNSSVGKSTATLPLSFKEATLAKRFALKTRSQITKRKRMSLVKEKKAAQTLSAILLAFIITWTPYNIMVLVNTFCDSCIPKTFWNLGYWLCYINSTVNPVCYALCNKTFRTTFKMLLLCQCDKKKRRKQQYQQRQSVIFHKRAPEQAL

| Compound | IC50 (Human M3 receptor) | IC50 (Human β2 adrenoceptor) |
| --- | --- | --- |
| O=C(c1ccc(CCNC[C@H](O)c2ccc(O)c3[nH]c(=O)ccc23)cc1)N1CCC2(CC1)CCN(C(=O)c1ccc(COc3cccc([C@](O)(C(=O)OCC4CCN(Cc5ccccc5)CC4)c4ccccc4)c3)cc1)CC2 [Compound 115, (1-benzylpiperidin-4-yl)methyl (S)-2-hydroxy-2-(3-((4-(9-(4-(2-(((R)-2-hydroxy-2-(8-hydroxy-2-oxo-1,2-dihydroquinolin-5-yl)ethyl)amino)ethyl)benzoyl)-3,9-diazaspiro[5.5]undecane-3-carbonyl)benzyl)oxy)phenyl)-2-phenylacetate] | 0.3 to 3 nM | 0.3 to 3 nM |
| O=C(NCCCNC[C@H](O)c1ccc(O)c2[nH]c(=O)ccc12)c1ccc(COc2cccc([C@@](O)(C(=O)OCC3CCN(Cc4ccccc4)CC3)c3ccccc3)c2)cc1 [Compound 44, (R)-(1-Benzylpiperidin-4-yl)methyl 2-hydroxy-2-(3-((4-((3-(((R)-2-hydroxy-2-(8-hydroxy-2-oxo-1,2-dihydroquinolin-5-yl)ethyl)amino)propyl)carbamoyl)benzyl)oxy)phenyl)-2-phenylacetate] | 0.3 to 3 nM | < 0.3 nM |
| O=C(N[C@@H]1CCN(C(=O)COc2cccc([C@](O)(C(=O)OCC3CCN(Cc4ccccc4)CC3)c3ccccc3)c2)C1)c1ccc(CCNC[C@H](O)c2ccc(O)c3[nH]c(=O)ccc23)cc1 [Compound 110, (1-benzylpiperidin-4-yl)methyl (S)-2-hydroxy-2-(3-(2-((R)-3-(4-(2-(((R)-2-hydroxy-2-(8-hydroxy-2-oxo-1,2-dihydroquinolin-5-yl)ethyl)amino)ethyl)benzamido)pyrrolidin-1-yl)-2-oxoethoxy)phenyl)-2-phenylacetate] | 0.3 to 3 nM | 0.3 to 3 nM |
| O=C(COc1cccc([C@](O)(C(=O)OCC2CCN(Cc3ccccc3)CC2)c2ccccc2)c1)N[C@H]1CC[C@H](NC(=O)c2ccc(CNC[C@H](O)c3ccc(O)c4[nH]c(=O)ccc34)cc2)CC1 [Compound 62, (1-benzylpiperidin-4-yl)methyl (S)-2-hydroxy-2-(3-(2-(((1R,4S)-4-(4-((((R)-2-hydroxy-2-(8-hydroxy-2-oxo-1,2-dihydroquinolin-5-yl)ethyl)amino)methyl)benzamido)cyclohexyl)amino)-2-oxoethoxy)phenyl)-2-phenylacetate] | < 0.3 nM | < 0.3 nM |
| O=C(OCC1CCN(Cc2ccccc2)CC1)C(O)(c1ccccc1)c1ccc(OCCCCCNC[C@H](O)c2ccc(O)c3[nH]c(=O)ccc23)cc1 (stereo partly drawn) [Compound 51, (1-benzylpiperidin-4-yl)methyl 2-hydroxy-2-(4-((5-(((R)-2-hydroxy-2-(8-hydroxy-2-oxo-1,2-dihydroquinolin-5-yl)ethyl)amino)pentyl)oxy)phenyl)-2-phenylacetate diformate] | 0.3 to 3 nM | < 0.3 nM |
| CN1CCC(COC(=O)[C@](O)(c2ccccc2)c2cccc(OCCCCCNC[C@H](O)c3ccc(O)c4[nH]c(=O)ccc34)c2)CC1 [Compound 23, (S)-(1-methylpiperidin-4-yl)methyl 2-hydroxy-2-(3-((5-(((R)-2-hydroxy-2-(8-hydroxy-2-oxo-1,2-dihydroquinolin-5-yl)ethyl)amino)pentyl)oxy)phenyl)-2-phenylacetate] | 0.3 to 3 nM | 0.3 to 3 nM |
| O=C(COc1cccc([C@](O)(C(=O)OCC2CCN(Cc3ccccc3)CC2)c2ccccc2)c1)N[C@@H]1CCN(C(=O)c2ccc(CCNC[C@H](O)c3ccc(O)c4[nH]c(=O)ccc34)cc2)C1 [Compound 104, (1-benzylpiperidin-4-yl)methyl (S)-2-hydroxy-2-(3-(2-(((R)-1-(4-(2-(((R)-2-hydroxy-2-(8-hydroxy-2-oxo-1,2-dihydroquinolin-5-yl)ethyl)amino)ethyl)benzoyl)pyrrolidin-3-yl)amino)-2-oxoethoxy)phenyl)-2-phenylacetate] | < 0.3 nM | 0.3 to 3 nM |
| O=C(NCC(=O)N1CCC(COc2cccc([C@](O)(C(=O)OCC3CCN(Cc4ccccc4)CC3)c3ccccc3)c2)CC1)c1ccc(CCNC[C@H](O)c2ccc(O)c3[nH]c(=O)ccc23)cc1 [Compound 152, (1-benzylpiperidin-4-yl)methyl (S)-2-hydroxy-2-(3-((1-((4-(2-(((R)-2-hydroxy-2-(8-hydroxy-2-oxo-1,2-dihydroquinolin-5-yl)ethyl)amino)ethyl)benzoyl)glycyl)piperidin-4-yl)methoxy)phenyl)-2-phenylacetate] | < 0.3 nM | 0.3 to 3 nM |
| O=C(NCCCOc1cccc([C@](O)(C(=O)OCC2CCN(Cc3ccccc3)CC2)c2ccccc2)c1)c1ccc(CCNC[C@H](O)c2ccc(O)c3[nH]c(=O)ccc23)cc1 [Compound 37, (S)-(1-benzylpiperidin-4-yl)methyl 2-hydroxy-2-(3-(3-(4-(2-(((R)-2-hydroxy-2-(8-hydroxy-2-oxo-1,2-dihydroquinolin-5-yl)ethyl)amino)ethyl)benzamido)propoxy)phenyl)-2-phenylacetate] | < 0.3 nM | < 0.3 nM |
| O=C(NCCCOc1cccc([C@](O)(C(=O)OCC2CCN(Cc3ccccc3)CC2)c2ccccc2)c1)c1ccc(CNC[C@H](O)c2ccc(O)c3[nH]c(=O)ccc23)c(C(F)(F)F)c1 [Compound 32M, (S)-(1-benzylpiperidin-4-yl)methyl (S)-2-hydroxy-2-(3-(3-(4-((((R)-2-hydroxy-2-(8-hydroxy-2-oxo-1,2-dihydroquinolin-5-yl)ethyl)amino)methyl)-3-(trifluoromethyl)benzamido)propoxy)phenyl)-2-phenylacetate] | 0.3 to 3 nM | > 3 nM |
| O=C(COc1cccc([C@](O)(C(=O)OCC2CCN(Cc3ccccc3)CC2)c2ccccc2)c1)N[C@H]1C[C@H](NC(=O)c2ccc(CNC[C@H](O)c3ccc(O)c4[nH]c(=O)ccc34)cc2)C1 [Compound 63, (1-benzylpiperidin-4-yl)methyl (S)-2-hydroxy-2-(3-(2-(((1R,3S)-3-(4-((((R)-2-hydroxy-2-(8-hydroxy-2-oxo-1,2-dihydroquinolin-5-yl)ethyl)amino)methyl)benzamido)cyclobutyl)amino)-2-oxoethoxy)phenyl)-2-phenylacetate] | < 0.3 nM | < 0.3 nM |
| O=C(NCCOc1cccc([C@](O)(C(=O)OCC2CCN(Cc3ccccc3)CC2)c2ccccc2)c1)c1ccc(CCNC[C@H](O)c2ccc(O)c3[nH]c(=O)ccc23)cc1 [Compound 38, (S)-(1-benzylpiperidin-4-yl)methyl 2-hydroxy-2-(3-(2-(4-(2-(((R)-2-hydroxy-2-(8-hydroxy-2-oxo-1,2-dihydroquinolin-5-yl)ethyl)amino)ethyl)benzamido)ethoxy)phenyl)-2-phenylacetate] | < 0.3 nM | < 0.3 nM |
| O=C(OCC1CCN(Cc2ccccc2)CC1)[C@](O)(c1ccccc1)c1cccc(OCCCCCCCNC[C@H](O)c2ccc(O)c3[nH]c(=O)ccc23)c1 [Compound 28, (S)-(1-benzylpiperidin-4-yl)methyl 2-hydroxy-2-(3-((7-(((R)-2-hydroxy-2-(8-hydroxy-2-oxo-1,2-dihydroquinolin-5-yl)ethyl)amino)heptyl)oxy)phenyl)-2-phenylacetate] | 0.3 to 3 nM | 0.3 to 3 nM |
| O=C(COc1cccc([C@](O)(C(=O)OCC2CCN(Cc3ccccc3)CC2)c2ccccc2)c1)N1CC2(CCN(C(=O)c3ccc(CCNC[C@H](O)c4ccc(O)c5[nH]c(=O)ccc45)cc3)CC2)C1 [Compound 94, (1-benzylpiperidin-4-yl)methyl (S)-2-hydroxy-2-(3-(2-(7-(4-(2-(((R)-2-hydroxy-2-(8-hydroxy-2-oxo-1,2-dihydroquinolin-5-yl)ethyl)amino)ethyl)benzoyl)-2,7-diazaspiro[3.5]nonan-2-yl)-2-oxoethoxy)phenyl)-2-phenylacetate] | < 0.3 nM | < 0.3 nM |
| O=C(COc1cccc([C@](O)(C(=O)OCC2CCN(Cc3ccccc3)CC2)c2ccccc2)c1)NC1CCN(C(=O)c2ccc(CCNC[C@H](O)c3ccc(O)c4[nH]c(=O)ccc34)cc2)CC1 [Compound 91, (1-benzylpiperidin-4-yl)methyl (S)-2-hydroxy-2-(3-(2-((1-(4-(2-(((R)-2-hydroxy-2-(8-hydroxy-2-oxo-1,2-dihydroquinolin-5-yl)ethyl)amino)ethyl)benzoyl)piperidin-4-yl)amino)-2-oxoethoxy)phenyl)-2-phenylacetate] | 0.3 to 3 nM | < 0.3 nM |
